The text below walks through data of patent US11708549B2, “Bacterial, fungal, and yeast growth inhibitor containing allulose” (CJ CHEILJEDANG CORPORATION, priority 2016, dated 2023).

The subject of test [1] is Lactobacillus casei and Lactococcus lactis subsp. lactis, as bacteria. Nature of the test: Increase in cell number of bacteria depending on saccharides. In kind it is cell-based. Particulars: bacteria in modified MRS medium, FIGS. 1 and 2. From the text: (§1) Specifically, each of the microorganisms (bacteria, fungi, and yeasts) obtained from Korean Culture Center of Microorganisms (KCCM) was subcultured three or four times in a culture medium (Table 1) by a typical method to enhance activity. Then, the cultured microorganism was inoculated into a culture medium (Table 1), followed by inducing over-cultivation to a concentration of 10^5 CFU/mL or more, thereby obtaining a strain mother liquor (Table 1).
(§2) In order to compare degrees of inhibition of the growth of microorganisms depending upon the kind of purely added saccharides without a bias due to alcohol and other additives contained in a fermented alcoholic beverage, only the kind of saccharides added to a culture medium for each of the microorganisms was varied and investigated.
(§3) Specifically, as saccharides of a culture medium suited to each strain, water-containing crystalline glucose (purity 98 wt % or more, CJ Cheiljedang), sucrose (purity 98 wt % or more, CJ Cheiljedang), and crystalline allulose (purity: 98 wt % or more, CJ Cheiljedang) were added to each of the culture medium, thereby preparing a modified culture medium (Tables 2 to 4). […]
(§4) Thereafter, the measured number of cell colonies was multiplied by a dilution factor, thereby calculating a value of colony forming unit (CFU) per mL of sample.

Test [2] concerns Saccharomyces cerevisiae and Saccharomyces pastorianus, as yeasts. Nature of the test: Increase in cell number of yeasts depending on saccharides. In kind it is cell-based. Particulars: yeasts in modified YMB medium, FIGS. 8 and 9.
Excerpt: as §1, §2, §3, §4

Each structure is given as a SMILES string.

Consider `O=C(CO)C(O)C(O)C(O)CO` (centres unmarked) [allulose], for which the “strain growth (in words)” value in test [1] and in test [2] was “substantially no strain growth was observed” throughout.
